Measurements reported in patent publication US12344623B2, “Thiazolopyridine derivatives as adenosine receptor antagonists” (Merck Patent GmbH, priority 2019, dated 2025).
Where two headings read alike, the source gives them in different places.

How the values were obtained:
Type in all cases: cell-based
human A2A receptor [1] = biological target: T1, human A2A receptor (Homo sapiens, UniProt P29274); test: Human T cells, endogenous A2A receptor, cAMP, agonist NECA; settings: read-out: hTcell data, cAMP, IC50
T1 sequence (P29274 whole entry): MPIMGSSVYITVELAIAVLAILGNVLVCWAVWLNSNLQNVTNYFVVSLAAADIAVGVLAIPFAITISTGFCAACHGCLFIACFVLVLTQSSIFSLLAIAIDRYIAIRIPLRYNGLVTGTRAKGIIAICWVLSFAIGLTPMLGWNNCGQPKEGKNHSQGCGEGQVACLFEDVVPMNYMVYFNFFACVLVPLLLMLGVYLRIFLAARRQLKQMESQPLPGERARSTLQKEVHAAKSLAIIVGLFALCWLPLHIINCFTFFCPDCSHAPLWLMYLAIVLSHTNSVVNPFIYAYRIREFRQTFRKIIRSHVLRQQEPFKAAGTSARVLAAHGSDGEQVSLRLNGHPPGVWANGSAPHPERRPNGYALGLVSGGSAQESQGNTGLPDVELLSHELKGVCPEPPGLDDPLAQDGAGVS
Method: The endogenous functional activity of the Gs-coupled human A2A receptor was measured in T cells, where this receptor is highly expressed. Determination of receptor activity was done by quantification of cAMP, which is a second messenger for adenosine receptors.
In short, human pan T cells were isolated from human PBMC (MACS Pan T Cell Isolation Kit, Miltenyi Biotec) that have been derived from fresh whole blood. The T cells were seeded in 384-well microtiter plates and treated with test compounds. […] Finally, HTRF reagents (cAMP Femto Kit, CisBio) were added to the wells, and after 1 h cellular cAMP levels were determined using the ENVISION (Perkin Elmer) plate reader.
The obtained raw data were normalized against the inhibitor control and the neutral control (DMSO) and the normalized data were fitted using Genedata Screener software.

human A2B receptor = biological target: T2, human A2B receptor (Homo sapiens, UniProt P29275); test: Functional A2B receptor activity, recombinant HEK293 cells, cAMP (HTRF), agonist NECA
T2 construct: expressed in transfected cells; host or cells: HEK293
T2 sequence (P29275 1-332): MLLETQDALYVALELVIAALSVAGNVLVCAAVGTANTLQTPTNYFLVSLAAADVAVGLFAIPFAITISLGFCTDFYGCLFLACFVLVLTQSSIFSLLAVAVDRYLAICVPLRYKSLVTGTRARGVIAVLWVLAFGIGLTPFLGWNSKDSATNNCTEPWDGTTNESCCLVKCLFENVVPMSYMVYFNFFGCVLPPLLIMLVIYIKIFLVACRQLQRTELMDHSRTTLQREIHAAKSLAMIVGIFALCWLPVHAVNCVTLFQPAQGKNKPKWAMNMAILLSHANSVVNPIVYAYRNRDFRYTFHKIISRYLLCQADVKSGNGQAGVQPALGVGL
In short: (§1)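 cAMP readout by HTRF after 30 min exposure of cells to forskolin, compound and agonist; data normalized vs inhibitor ctrl and DMSO (neutral) ctrl, then fitted.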

human A1 receptor = biological target: T3, human A1 receptor (Homo sapiens, UniProt P30542); test: Functional A1 receptor activity, recombinant CHO cells, cAMP (HTRF), forskolin, agonist CPA
T3 construct: expressed in transfected cells; host or cells: CHO
T3 sequence (P30542 1-326): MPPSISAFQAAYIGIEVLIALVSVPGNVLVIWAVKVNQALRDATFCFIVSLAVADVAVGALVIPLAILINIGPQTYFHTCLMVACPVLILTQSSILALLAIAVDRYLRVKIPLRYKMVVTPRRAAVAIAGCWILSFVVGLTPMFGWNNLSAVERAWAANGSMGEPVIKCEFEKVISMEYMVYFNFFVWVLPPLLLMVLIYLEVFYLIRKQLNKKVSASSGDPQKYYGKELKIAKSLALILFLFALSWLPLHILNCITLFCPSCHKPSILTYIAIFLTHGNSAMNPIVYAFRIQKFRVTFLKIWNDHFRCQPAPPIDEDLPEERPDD
In short: (§2)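 CHO cells (hA1 or hA3) + forskolin + test cpd + agonist (CPA/A1, IB-MECA/A3), 30 min; HTRF cAMP readout; normalized vs inhibitor and DMSO controls, curve fit.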

human A2A receptor [2] = biological target: T1, human A2A receptor; test: Functional A2A receptor activity, recombinant HEK293 cells, cAMP (HTRF), agonist NECA; design: expressed in transfected cells; host or cells: HEK293
In short: as §1

human A3 receptor = biological target: T4, human A3 receptor (Homo sapiens, UniProt P0DMS8); test: Functional A3 receptor activity, recombinant CHO cells, cAMP (HTRF), forskolin, agonist IB-MECA
T4 construct: expressed in transfected cells; host or cells: CHO
T4 sequence (P0DMS8 1-318): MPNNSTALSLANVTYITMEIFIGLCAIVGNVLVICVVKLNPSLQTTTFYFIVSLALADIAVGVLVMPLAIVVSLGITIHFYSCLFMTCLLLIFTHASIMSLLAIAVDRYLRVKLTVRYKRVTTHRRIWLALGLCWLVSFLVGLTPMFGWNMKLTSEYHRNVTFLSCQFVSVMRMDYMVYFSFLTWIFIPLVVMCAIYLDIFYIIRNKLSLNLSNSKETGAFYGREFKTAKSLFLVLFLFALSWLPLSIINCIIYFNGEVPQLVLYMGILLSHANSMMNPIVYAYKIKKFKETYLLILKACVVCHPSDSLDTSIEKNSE
In short: as §2

[3] = read-out: Functional A2B receptor activity, HEK293, cAMP, IC50
[4] = recombinant CHO cells, forskolin, agonist CPA, read-out: Functional A1 receptor activity, CHO, cAMP, IC50
[5] = read-out: Functional A2A receptor activity, HEK293, cAMP, IC50
[6] = recombinant CHO cells, forskolin, agonist IB-MECA, read-out: Functional A3 receptor activity, CHO, cAMP, IC50
[7] = recombinant CHO cells, forskolin, agonist CPA, cAMP, read-out: Functional A1 receptor activity, CHO, cAMP, IC50
[8] = recombinant CHO cells, forskolin, agonist IB-MECA, cAMP, read-out: Functional A3 receptor activity, CHO, cAMP, IC50

Row | SMILES | IC50 (human A2A receptor [1]) [nM] | IC50 (human A2B receptor; [3]) [nM] | IC50 (human A2A receptor [2]; [5]) [nM] | IC50 (human A3 receptor; [6]) [nM] | IC50 (human A1 receptor; [7]) [nM] | IC50 (human A3 receptor; [8]) [nM] | also measured
1 | COc1cnc(N2CCOCC2)c2sc(NC(=O)N3CCC(O)CC3)nc12 | < 1000 | – | – | – | – | – | –
2 | COc1nc(F)c(C2CCOCC2)c2sc(NC(=O)N3CC[C@@]4(CCOC4)C3)nc12 [Compound 37, (R)-2-Oxa-7-aza-spiro[4.4]nonane-7-carboxylic acid [6-fluoro-4-methoxy-7-(tetrahydro-pyran-4-yl)-thiazolo[4,5-c]pyridin-2-yl]-amide] | < 10 | < 100 | < 10 | > 1000 | – | – | IC50 (human A1 receptor; [4]): > 1000 nM
3 | COc1ncc(C2=CCCCC2)c2sc(NC(=O)N3CCC4(CCOCC4)C3)nc12 [Compound 59, 8-Oxa-2-aza-spiro[4.5]decane-2-carboxylic acid (7-cyclohex-1-enyl-4-methoxy-thiazolo[4,5-c]pyridin-2-yl)-amide] | < 10 | < 100 | < 10 | > 1000 | – | – | IC50 (human A1 receptor; [4]): < 1000 nM
4 | COc1ncc(C2=CCC(F)(F)CC2)c2sc(NC(=O)N3CCC4(CCOCC4)C3)nc12 [Compound 63, 8-Oxa-2-aza-spiro[4.5]decane-2-carboxylic acid [7-(4,4-difluoro-cyclohex-1-enyl)-4-methoxy-thiazolo[4,5-c]pyridin-2-yl]-amide] | < 10 | < 100 | < 10 | > 1000 | – | – | IC50 (human A1 receptor; [4]): < 1000 nM
5 | COc1ncc(C2=CCOCC2)c2sc(NC(=O)c3c[nH]cn3)nc12 [Compound 65, 1H-Imidazole-4-carboxylic acid [7-(3,6-dihydro-2H-pyran-4-yl)-4-methoxy-thiazolo[4,5-c]pyridin-2-yl]-amide] | < 10 | < 10 | < 10 | > 1000 | – | – | IC50 (human A1 receptor; [4]): < 100 nM
6 | COc1ncc(-c2cnn(Cc3cccnc3)c2)c2sc(NC(=O)N3CCC4(CCOCC4)C3)nc12 [Compound 68, 8-Oxa-2-aza-spiro[4.5]decane-2-carboxylic acid [4-methoxy-7-(1-pyridin-3-ylmethyl-1H-pyrazol-4-yl)-thiazolo[4,5-c]pyridin-2-yl]-amide] | < 10 | < 10 | < 10 | > 1000 | – | – | –
7 | COc1ncc(-c2cnn(Cc3ccccn3)c2)c2sc(NC(=O)N3CCC4(CCOCC4)C3)nc12 [Compound 69, 8-Oxa-2-aza-spiro[4.5]decane-2-carboxylic acid [4-methoxy-7-(1-pyridin-2-ylmethyl-1H-pyrazol-4-yl)-thiazolo[4,5-c]pyridin-2-yl]-amide] | < 10 | < 10 | < 10 | < 1000 | – | – | IC50 (human A1 receptor; [4]): < 100 nM
8 | COc1ncc(C2=CCOCC2)c2sc(NC(=O)c3ccc(-n4ccnn4)cc3)nc12 [Compound 71, N-[7-(3,6-dihydro-2H-pyran-4-yl)-4-methoxy-[1,3]thiazolo[4,5-c]pyridin-2-yl]-4-(1H-1,2,3-triazol-1-yl)benzamide] | < 10 | < 10 | < 10 | > 1000 | – | – | IC50 (human A1 receptor; [4]): < 1000 nM
9 | COc1ncc(C2=CCOCC2)c2sc(NC(=O)c3c[nH]c(-c4ccncc4)n3)nc12 [Compound 165, 2-Pyridin-4-yl-1H-imidazole-4-carboxylic acid [7-(3,6-dihydro-2H-pyran-4-yl)-4-methoxy-thiazolo[4,5-c]pyridin-2-yl]-amide] | < 10 | < 10 | < 10 | > 1000 | – | – | –
10 | COc1ncc(C2=CCOCC2)c2sc(NC(=O)c3cnc(C(=O)O)[nH]3)nc12 [Compound 168, 5-[7-(3,6-Dihydro-2H-pyran-4-yl)-4-methoxy-thiazolo[4,5-c]pyridin-2-ylcarbamoyl]-1H-imidazole-2-carboxylic acid] | < 100 | < 100 | < 10 | > 1000 | – | – | –
11 | COc1cnc(N2CCOCC2)c2sc(NC(=O)N3CCC4(CCCO4)CC3)nc12 [drawing 189, reference compound] | – | < 1000 | < 10 | – | > 1000 | > 1000 | –
12 | COc1cnc(C2CCOCC2)c2sc(NC(=O)N3CCC(O)CC3)nc12 [drawing 190, reference compound] | – | < 1000 | < 100 | – | > 1000 | < 1000 | –
13 | COc1ccc(N2CCOCC2)c2sc(NC(=O)N3CCCCC3)nc12 [drawing 191, reference compound] | – | < 1000 | < 10 | – | > 1000 | < 1000 | –
14 | COc1cnc(N2CCOCC2)c2sc(NC(=O)N3CCCCC3)nc12 [drawing 192, reference compound] | – | < 1000 | < 10 | – | > 1000 | < 100 | –
15 | COc1cnc(N2CCOCC2)c2sc(NC(=O)N3CCOCC3)nc12 [drawing 193, reference compound] | – | < 1000 | < 10 | – | > 1000 | < 1000 | –
16 | COc1cnc(N2CCOCC2)c2sc(NC(=O)N3CCC4(CCN(C)C4=O)CC3)nc12 [drawing 215] | < 1000 | – | – | – | – | – | –
17 | COc1ccc(-c2ccccc2)c2sc(NC(=O)NCCN3CCCCC3)nc12 [drawing 216] | < 1000 | – | – | – | – | – | –
18 | COc1cnc(N2CCOCC2)c2sc(NC(=O)N3CCC(CO)CC3)nc12 [drawing 217] | < 1000 | – | – | – | – | – | –
19 | COc1cnc(N2CCOCC2)c2sc(NC(=O)N3CCC4(CCCO4)CC3)nc12 [drawing 218] | < 1000 | – | – | – | – | – | –
20 | COc1ccc(N2CCOCC2)c2sc(NC(=O)N3CCC4(CCCO4)CC3)nc12 [drawing 219] | < 1000 | – | – | – | – | – | –
21 | COc1ccc(N2CCOCC2)c2sc(NC(=O)N3CCCCC3)nc12 [drawing 221] | < 1000 | – | – | – | – | – | –
22 | COc1cnc(N2CCOCC2)c2sc(NC(=O)N3CCCCC3)nc12 [drawing 222] | < 1000 | – | – | – | – | – | –
23 | COc1cnc(N2CCOCC2)c2sc(NC(=O)N3CCOCC3)nc12 [drawing 223] | < 1000 | – | – | – | – | – | –
24 | COc1ccc(C2CCOCC2)c2sc(NC(=O)N3CCC4(CC3)OCCO4)nc12 [reference compound] | – | – | – | – | – | – | IC50 (human A2B receptor): < 1000 nM; IC50 (human A1 receptor): > 1000 nM; IC50 (human A2A receptor [2]): < 10 nM; IC50 (human A3 receptor): > 1000 nM
25 | COc1ccc(C2CCOCC2)c2sc(NC(=O)N3CCOCC3)nc12 [reference compound] | – | < 1000 | < 10 | – | < 1000 | > 1000 | –
26 | COc1ccc(N2CCOCC2)c2sc(NC(=O)N3CCOCC3)nc12 [reference compound] | – | < 1000 | < 10 | – | > 1000 | > 1000 | –
27 | COc1ccc(-c2cnn(C)c2)c2sc(NC(=O)N3CCC(C)(O)CC3)nc12 [reference compound] | – | < 1000 | < 10 | – | < 1000 | < 1000 | –
28 | COc1ccc(-c2cnn(C)c2)c2sc(NC(=O)c3ccnc(N4CCOCC4)c3)nc12 [reference compound] | – | < 1000 | < 10 | – | < 1000 | < 1000 | –
